Values of other authors in patent publication US20120172333A1, “PYRROLO-PYRIDINE DERIVATIVES AS ACTIVATORS OF AMPK” (GLAXOSMITHKLINE LLC, priority 2009, published 2012).

Test system: ob/ob and db/db mice
Conditions: 8 day administration

For `NC(=O)c1ncn([C@@H]2O[C@H](CO)[C@@H](O)[C@H]2O)c1N` [AICAR], the “reduction of blood glucose” value is listed as 35%.
